Holding throughout (assay type): cell-based, human
One assay relates to 20S proteasome. The assay is described as follows: 20S Proteasome Activity Assay in treated cell lysates. The following applies: A549 cells treated 4 h. On the procedure: Cells were treated with complex 3 (4 h), and then cells were lysed in 50 mM Tris-HCl pH 7.6, 0.1% Triton X-100, 0.9% NaCl to obtain the Proteasome activity (EC 3.4.25.1). The proteasome activity was tested using the 20S Proteasome Activity Assay kit APT280 (Merck Millipore) and a computer-interfaced GeniusPlus microplate reader (Tecan Trading AG, Switzerland). The activity was normalized to the protein concentration and expressed as a percentage of control (untreated cells).

A further assay has as its system A549 cells. In words: Cell cycle analysis (propidium iodide, flow cytometry). The following applies: A549, 24 h, 0.06-0.60 μM. On the procedure: (§1) 2.0×10^5 A549 cells were seeded in 6-well plates in a complete medium and treated with the complex 3. Assay results were detected by flow cytometry on a BD FACSCanto II flow cytometer. Data were analyzed using BD FACSDiva v.8.0.1 software (BD Biosciences) unless otherwise indicated. Tumor cells were treated for 72 h with complex 3, then stained for 15 minutes with FITC Annexin-V (Thermo Fisher Scientific) and 7AAD (BD Pharmingen, Milan, Italy). Activated caspase-3,7 was detected using the CaspaTag Caspase-3,7 assay (Merck Millipore) after an incubation of 24 h with complex 3. For B-cell lymphoma/leukemia-2 protein (Bcl-2) and Bcl-2 associated x protein (Bax) analysis, cells were treated for 72 h with C3, then fixed and permeabilized (FIX & PERM Cell Fixation & Cell Permeabilization Kit, Life Technologies). […] The distribution of cells in different cell cycle phases was quantified using ModFit LT 4.0 software (Verity Software House, Topsham, ME, USA) (See: Sulaiman, A. A. A.; Casagrande, N.; Borghese, C.; Corona, G.; Isab, A. A.; Ahmad, S.; Aldinucci, D.; Altaf M. Design, Synthesis, and Preclinical Activity in Ovarian Cancer Models of New Phosphanegold(I)—N-Heterocyclic Carbene Complexes. J Med Chem 2022, 65, 14424-14440, which is incorporated herein by reference in its entirety). […]

In the next assay the test system is caspase-3,7. The assay is described as follows: Caspase-3,7 activation (CaspaTag/FLICA), flow cytometry. The following applies: A549, 24 h. As for the experimental part: as §1
In general terms: Flow cytometry measures light scatter and fluorescence of single cells or particles in a stream.

A further assay deals with NOTCH1. The assay is described as follows: NOTCH1 surface expression, flow cytometry. The following applies: A549, 24 h. On the procedure:
as §1

Another assay concerns CD44. In words: CD44 surface expression, flow cytometry. The following applies: A549, 24 h. On the procedure:
as §1

As for `CC(C)c1cccc(C(C)C)c1-n1ccn(-c2c(C(C)C)cccc2C(C)C)[c]1=[Au-][P+](CCNCC[P+]([Au-]=[c]1n(-c2c(C(C)C)cccc2C(C)C)ccn1-c1c(C(C)C)cccc1C(C)C)(C1CCCCC1)C1CCCCC1)(C1CCCCC1)C1CCCCC1` [Complex 3, [(Au(IPr))2(C28H24P2)](PF6)2], the 20S proteasome activity result with 20S proteasome is listed as “inhibited in a dose-dependent manner”. In the assay on A549 cells, the “cells in G0/G1 phase of the cell cycle” value is “accumulation” and the “cells in S phase of the cell cycle” value is “decrease”. Also, the “caspase-3,7 activation” value in the assay on caspase-3,7 is given as “activated”. In addition, the NOTCH1 expression entry in the assay with NOTCH1 is “decreased in a dose-dependent manner”. The CD44 expression entry in the assay on CD44 was “decreased”.
